Measured values: ChEMBL document CHEMBL1800012, “Optimisation of a novel series of selective CNS penetrant CB(2) agonists” (Bioorg Med Chem Lett, 2011)

How the values were obtained:
[1] = Intrinsic clearance in human liver microsomes; format: ADME, Microsome
[2] = Intrinsic clearance in rat liver microsomes; format: ADME, Microsome
Cannabinoid receptor 2 [3] = target: T1, Cannabinoid receptor 2 (Homo sapiens, UniProt P34972); assay: Agonist activity at human recombinant CB2 receptor expressed in CHO cells assessed as inhibition forskolin-induced cAMP release; format: functional, cell-based
T1 sequence (P34972 whole entry): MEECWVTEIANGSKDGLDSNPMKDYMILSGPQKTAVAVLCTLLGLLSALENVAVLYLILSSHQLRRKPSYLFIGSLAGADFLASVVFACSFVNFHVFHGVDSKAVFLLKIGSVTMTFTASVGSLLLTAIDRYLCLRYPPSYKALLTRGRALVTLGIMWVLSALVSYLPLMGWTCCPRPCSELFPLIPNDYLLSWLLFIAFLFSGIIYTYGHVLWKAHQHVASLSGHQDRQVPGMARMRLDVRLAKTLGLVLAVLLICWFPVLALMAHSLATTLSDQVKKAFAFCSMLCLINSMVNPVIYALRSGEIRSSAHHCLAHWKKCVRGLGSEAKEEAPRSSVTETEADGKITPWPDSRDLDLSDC

Cannabinoid receptor 2 [4] = target: T1, Cannabinoid receptor 2; assay: Agonist activity at human recombinant CB2 receptor expressed in CHO cells assessed as inhibition forskolin-induced cAMP release relative to control; format: functional, cell-based
[5] = Clearance in rat at 1 mg/kg, iv; format: ADME, organism-based; set-up: dose 1 mg/kg, route intravenous; conditions: in vivo
Cannabinoid receptor 1 [6] = target: T2, Cannabinoid receptor 1 (Homo sapiens, UniProt P21554); assay: Agonist activity at human CB1 receptor by functional assay
T2 sequence (P21554 whole entry): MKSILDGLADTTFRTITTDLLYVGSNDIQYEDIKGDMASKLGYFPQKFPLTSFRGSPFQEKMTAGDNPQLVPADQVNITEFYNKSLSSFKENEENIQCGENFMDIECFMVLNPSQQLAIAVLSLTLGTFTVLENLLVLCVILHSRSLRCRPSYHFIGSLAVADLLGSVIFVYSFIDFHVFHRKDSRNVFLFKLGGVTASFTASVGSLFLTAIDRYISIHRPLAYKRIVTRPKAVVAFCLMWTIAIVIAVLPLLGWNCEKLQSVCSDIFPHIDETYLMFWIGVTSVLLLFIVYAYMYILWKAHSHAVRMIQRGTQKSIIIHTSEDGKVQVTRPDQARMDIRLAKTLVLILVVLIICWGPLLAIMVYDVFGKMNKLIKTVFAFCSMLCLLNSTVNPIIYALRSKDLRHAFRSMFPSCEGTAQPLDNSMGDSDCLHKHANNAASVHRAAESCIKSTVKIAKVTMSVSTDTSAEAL

[7] = Volume of distribution in rat at 1 mg/kg, iv; format: ADME, organism-based; set-up: dose 1 mg/kg, route intravenous; conditions: in vivo
Rattus norvegicus = species on record: Rattus norvegicus; assay: Ratio of unbound drug level in brain to plasma in rat relative to control; format: ADME, organism-based; conditions: in vivo
[8] = Oral bioavailability in rat; format: ADME, organism-based; conditions: in vivo
[9] = Half life in rat at 1 mg/kg, iv; format: ADME, organism-based; set-up: dose 1 mg/kg, route intravenous; conditions: in vivo
Cannabinoid receptor 1 [10] = target: T2, Cannabinoid receptor 1; assay: Binding affinity at human CB1 receptor
[11] = Ratio of unbound drug level in brain to plasma in rat; format: ADME, organism-based; conditions: brain and plasma, read-out: BPR

## CN(C)CCS(=O)(=O)c1ccc2c(c1)nc(CC(C)(C)C)n2CC1CC1
[1]
  microsomal CLint: 79 µL/min/mg
[2]
  microsomal CLint: 170 µL/min/mg
Cannabinoid receptor 2 [3]
  EC50: 32 nM

## CC(C)(C)Cc1nc2cc(S(=O)(=O)C(C)(C)CO)ccc2n1CC1CC1
[1]
  microsomal CLint: < 7 µL/min/mg
[2]
  microsomal CLint: 54 µL/min/mg
Cannabinoid receptor 2 [3]
  EC50: 1.2 nM

## CCS(=O)(=O)c1ccc2c(c1)nc(CCC(C)C)n2CC1CC1
Cannabinoid receptor 2 [4]
  Emax: 58%
Cannabinoid receptor 2 [3]
  EC50: 67 nM

## CCCc1nc2cc(S(=O)(=O)CC)ccc2n1CC1CC1
[1]
  microsomal CLint: 43 µL/min/mg
[2]
  microsomal CLint: 34 µL/min/mg
Cannabinoid receptor 2 [3]
  EC50: 199 nM

## CCS(=O)(=O)c1ccc2c(c1)nc(C(C)(C)C)n2C1CC1
[1]
  microsomal CLint: 8 µL/min/mg
[2]
  microsomal CLint: 8.5 µL/min/mg
Cannabinoid receptor 2 [3]
  EC50: 106 nM

## CCS(=O)(=O)c1ccc2c(c1)nc(C1CCC1)n2CC1CC1
[1]
  microsomal CLint: 8 µL/min/mg
[2]
  microsomal CLint: 33 µL/min/mg
Cannabinoid receptor 2 [3]
  EC50: 82 nM

## CCS(=O)(=O)c1ccc2c(c1)nc(C(C)(C)C)n2CCN(C)C
[1]
  microsomal CLint: 8 µL/min/mg
[2]
  microsomal CLint: 8.5 µL/min/mg
Cannabinoid receptor 2 [3]
  EC50: 39 nM

## CCS(=O)(=O)c1ccc2c(c1)nc(C1(C)CC1)n2CC1CC1
[1]
  microsomal CLint: 8 µL/min/mg
[2]
  microsomal CLint: 11 µL/min/mg
Cannabinoid receptor 2 [3]
  EC50: 51 nM

## CCS(=O)(=O)c1ccc2c(c1)nc(C(C)(C)C)n2CC1CC1
[5]
  clearance: 20 mL/min/kg
Cannabinoid receptor 1 [6]
  EC50: > 10 nM
[7]
  Vd: 3.2 L/kg
[1]
  microsomal CLint: 9 µL/min/mg
Rattus norvegicus
  BPR: 30
[8]
  bioavailability: 100%
[9]
  half-life: 1.9 h
[2]
  microsomal CLint: 12 µL/min/mg
Cannabinoid receptor 2 [3]
  EC50: 2.7 nM
Cannabinoid receptor 1 [10]
  Ki: > 20000 nM

## CCS(=O)(=O)c1ccc2c(c1)nc(CC(C)(C)C)n2CC1CC1
[1]
  microsomal CLint: 8.4 µL/min/mg
[2]
  microsomal CLint: 38 µL/min/mg
Cannabinoid receptor 2 [3]
  EC50: 2.9 nM

## CN(C)CCn1c(CC(C)(C)C)nc2cc(S(=O)(=O)CC(C)(C)O)ccc21
[1]
  microsomal CLint: < 7 µL/min/mg
Rattus norvegicus
  BPR: < 1%
[8]
  bioavailability: 21%
[2]
  microsomal CLint: < 11.2 µL/min/mg
Cannabinoid receptor 2 [3]
  EC50: 12 nM
Cannabinoid receptor 1 [10]
  Ki: > 19400 nM

## CC(C)S(=O)(=O)c1ccc2c(c1)nc(CC(C)(C)C)n2CC1CC1
[1]
  microsomal CLint: 23 µL/min/mg
[2]
  microsomal CLint: 144 µL/min/mg
Cannabinoid receptor 2 [3]
  EC50: 3.2 nM
Cannabinoid receptor 1 [10]
  Ki: > 10000 nM

## CCS(=O)(=O)c1ccc2c(c1)nc(C(C)C)n2CC1CC1
Cannabinoid receptor 2 [3]
  EC50: 132 nM

## CCS(=O)(=O)c1ccc2c(c1)nc(CC1CC1)n2CC1CC1
Cannabinoid receptor 2 [4]
  Emax: 79%
Cannabinoid receptor 2 [3]
  EC50: 425 nM

## CCS(=O)(=O)c1ccc2c(c1)nc(C(C)(C)C)n2C[C@@H]1CCCO1
[5]
  clearance: 27.1 mL/min/kg
[7]
  Vd: 1 L/kg
[1]
  microsomal CLint: 12 µL/min/mg
[9]
  half-life: 0.4 h
[11]
  Kp uu: 1
[2]
  microsomal CLint: 17 µL/min/mg
Cannabinoid receptor 2 [3]
  EC50: 11 nM

## CC(C)(C)Cc1nc2cc(S(=O)(=O)C(C)(C)C)ccc2n1CC1CC1
[1]
  microsomal CLint: 38 µL/min/mg
Cannabinoid receptor 2 [3]
  EC50: 0.43 nM

## CC(C)(C)Cc1nc2cc(S(=O)(=O)CC(C)(C)O)ccc2n1CC1CC1
[1]
  microsomal CLint: < 7 µL/min/mg
[2]
  microsomal CLint: 244 µL/min/mg
Cannabinoid receptor 2 [3]
  EC50: 3.1 nM

## CC(C)(C)Cc1nc2cc(S(=O)(=O)Cc3ccccc3)ccc2n1CC1CC1
[1]
  microsomal CLint: 276 µL/min/mg
[2]
  microsomal CLint: 369 µL/min/mg
Cannabinoid receptor 2 [3]
  EC50: 6.5 nM

## CCS(=O)(=O)c1ccc2c(c1)nc(C1CCCC1)n2CC1CC1
[1]
  microsomal CLint: 11 µL/min/mg
[2]
  microsomal CLint: 106 µL/min/mg
Cannabinoid receptor 2 [3]
  EC50: 25 nM

## CCS(=O)(=O)c1ccc2c(c1)nc(C(C)(C)C)n2CCOC(F)(F)F
[1]
  microsomal CLint: 7 µL/min/mg
[2]
  microsomal CLint: 19 µL/min/mg
Cannabinoid receptor 2 [3]
  EC50: 5.3 nM

## CCS(=O)(=O)c1ccc2c(c1)nc(C1(C)CCCC1)n2CC1CC1
[1]
  microsomal CLint: 42 µL/min/mg
[2]
  microsomal CLint: 106 µL/min/mg
Cannabinoid receptor 2 [3]
  EC50: 9.6 nM
